Marks after values point to notes of the source that are not given here.
Legend:
[1] = tested on: rats; assay: elevated plus maze; type: in vivo; settings: rat, IV, statistically significant response (anxiolytic effect)
Experimental: The elevated plus maze model capitalizes on rats' innate fear of open, elevated places. The test apparatus is an elevated plus maze consisting of two open arms and two closed arms. A rat will naturally chose to spend more time on the closed arms of the maze than on the open arms but that if an efficacious anxiolytic compound is administered to the rat prior to the test the amount it of time the rat spends in the open arms is increased.
Test compound is administered IV in a 50% PEG (polyethylene glycol) vehicle 5 minutes prior to the test session. A range of compound doses is typically used and 8-10 rats are tested at each dose. The rat is placed in the center of the maze facing one of the open arms. The animal's locomotion is tracked over a five minute test session using photocells interfaced to a computer. The computer measures the number of entries into each arm and the time spent on each arm. An anxiolytic effect in the elevated plus maze model is defined by an increase in the percentage of time spent on the open arms in compound versus vehicle treated animals.

[2] = tested on: rats; assay: Porsolt forced swim test; type: in vivo; settings: rat, administered IV, statistically significant response
Source text: The effects measured in this model have been correlated to antidepressant efficacy for drugs. The paradigm of this model is that an effective antidepressant compound will cause a rat to make greater attempts to escape a water-filled cylinder than a rat given vehicle only.
Animals used in this study were non-naive male Sprague Dawley Rats (SASCO, St. Louis) weighing between 280-350 grams. The test apparatus consists of 6 clear Plexiglas cylinders 40 cm high×19 cm wide. Cylinders are filled to 18 cm with 25° C. water. Each rat is placed in a cylinder for a 15 minute training session. Following either subchronic or acute dosing of either vehicle (0.5% methylcellulose) of compound, animals are brought back 24 hours later for a 5 minute test session. These test session is videotaped for later scoring.
Subchronic dosing consists of administering drug three times in the 24-hour period between training and testing. The drug is administered 24 hrs., 5 hrs., and 1 hr. prior to the test session. Acute dosing consists of administering the drug once, 1 hour prior to the test session. Scoring is done using a time-sampling computer program written in Visual Basic and run in DOS. […] These sampling score are then converted into percentages of the test session.

[3] = molecular target: α5β3γ2 GABAA subtype receptor (Homo sapiens, UniProt P18507+P31644); assay: oocyte electrophysiology, two electrode voltage-clamp, potentiation of GABA current; type: cell-based; settings: Xenopus oocytes, human subunits, GABA EC10; for Emax: read-out: oocyte electrophysiology maximum potentiation (%) α5β3γ2
Chain of α5β3γ2 GABAA subtype receptor (P31644 32-462): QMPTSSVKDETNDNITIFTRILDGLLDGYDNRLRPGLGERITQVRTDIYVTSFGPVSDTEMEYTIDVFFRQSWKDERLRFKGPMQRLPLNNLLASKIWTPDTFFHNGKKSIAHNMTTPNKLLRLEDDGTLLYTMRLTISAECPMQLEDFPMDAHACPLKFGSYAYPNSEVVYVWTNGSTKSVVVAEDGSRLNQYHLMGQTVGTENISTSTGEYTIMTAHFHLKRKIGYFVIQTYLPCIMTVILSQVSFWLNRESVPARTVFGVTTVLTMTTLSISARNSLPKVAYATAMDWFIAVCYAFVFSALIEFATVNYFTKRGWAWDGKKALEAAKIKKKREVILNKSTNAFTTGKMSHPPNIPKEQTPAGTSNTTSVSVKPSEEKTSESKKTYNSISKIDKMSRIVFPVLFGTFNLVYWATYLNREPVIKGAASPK
Chain of α5β3γ2 GABAA subtype receptor (P28472 26-473 partner): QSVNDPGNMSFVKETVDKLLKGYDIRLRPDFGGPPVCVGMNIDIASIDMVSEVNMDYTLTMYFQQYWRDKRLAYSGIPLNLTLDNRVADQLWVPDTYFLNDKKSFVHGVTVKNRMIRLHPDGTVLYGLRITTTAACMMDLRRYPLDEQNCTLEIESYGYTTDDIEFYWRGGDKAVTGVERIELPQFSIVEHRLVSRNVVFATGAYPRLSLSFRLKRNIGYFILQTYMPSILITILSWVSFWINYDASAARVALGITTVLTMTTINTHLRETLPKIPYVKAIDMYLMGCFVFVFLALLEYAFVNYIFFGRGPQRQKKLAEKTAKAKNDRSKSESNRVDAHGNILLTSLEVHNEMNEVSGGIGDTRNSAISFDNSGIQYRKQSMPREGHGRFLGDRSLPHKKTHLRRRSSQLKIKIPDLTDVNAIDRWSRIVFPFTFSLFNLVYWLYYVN
Chain of α5β3γ2 GABAA subtype receptor (P18507 40-475): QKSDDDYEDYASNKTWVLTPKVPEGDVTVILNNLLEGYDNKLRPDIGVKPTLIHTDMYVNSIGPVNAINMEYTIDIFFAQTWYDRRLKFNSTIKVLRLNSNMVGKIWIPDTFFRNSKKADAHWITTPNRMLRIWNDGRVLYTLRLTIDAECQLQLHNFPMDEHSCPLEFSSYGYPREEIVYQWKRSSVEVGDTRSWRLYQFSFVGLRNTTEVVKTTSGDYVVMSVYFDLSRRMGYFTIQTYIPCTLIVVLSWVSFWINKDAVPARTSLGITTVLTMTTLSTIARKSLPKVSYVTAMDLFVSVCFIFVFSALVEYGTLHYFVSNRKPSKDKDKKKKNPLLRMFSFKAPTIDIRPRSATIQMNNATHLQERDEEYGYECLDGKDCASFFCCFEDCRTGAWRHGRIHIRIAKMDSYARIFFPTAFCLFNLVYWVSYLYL
Experimental: (§1) Assays are carried out as described previously in White and Gurley, 1995 and White, et al., 1995. Xenopus laevis oocytes are enzymatically isolated and injected with non-polyadenylated cRNA for human derived α, β and γ GABAA subunits, respectively. In more preferred embodiments cRNA for the α1β2γ2, α2β3γ2, α3β3γ2, and α5β3γ2 subunit combinations are injected. Only one of these subunit combinations is injected per cell. For each subunit combination, sufficient message is injected to result in current amplitudes of >10 nA when 1 μM GABA is applied. Electrophysiological recordings are carried out using the two electrode voltage-clamp technique at a membrane holding potential of −70 mV.
(§2) Compounds are evaluated against a GABA concentration that evokes <10% (EC10) of the maximal evocable GABA current. Each oocyte is exposed to increasing concentrations of compound in order to evaluate a concentration/effect relationship.
(§3) Specificity of a compound for the Ro15-1788 site is determined following completion of the concentration/effect curve. After washing the oocyte sufficiently to remove previously applied compound, the oocyte is exposed to GABA and 1 μM Ro15-1788, followed by exposure to GABA, 1 μM Ro15-1788, and compound. Percent change due to addition of compound is calculated as described above. Any percent change observed in the presence of Ro15-1788 is subtracted from the percent changes in current amplitude observed in the absence of 1 μM Ro15-1788. These net values are used for the calculation of average activity and EC50 values.
(§4) To evaluate average activity and EC50 values, the concentration/effect data are averaged across cells and fit to the logistic equation. Average values are reported as mean ±standard error.

[4] = tested on: rats; assay: spontaneous locomotor activity; type: in vivo; settings: rat
Experimental: Spontaneous locomotor activity can be measured to determine sedative effects of compounds. Locomotor activity is measured in eight computerized Digiscan-16 Animal Activity Monitors (Omnitech Electronics, Columbus, Ohio) equipped with 48 infrared photocell emitters and detectors. Each box is constructed of Plexiglas sides and floor. Horizontal activity is detected by a set of horizontal sensors on the front to back walls and a second group of sensors on the side to side walls located 5 cm above the cage floor. Vertical activity is detected by a third set of sensors on the side to side walls located 13.5 cm above the cage floor. The rats are tested in the presence of white noise (62 dB) and red St light (60 watt).
Test compound is administered IV in a 50% PEG vehicle 5 minutes prior to the test session. A range of compound doses is typically used and 6 to 8 rats are tested at each dose. The animal's movement time, vertical activity, and total distance traveled are tracked over a 15 minute test session. A sedative, or hypnotic, effect in the spontaneous locomotor activity model is defined by a decrease in any two of these three measures relative to animals given vehicle alone.

[5] = molecular target: GABAA receptors (benzodiazepine site, Ro15-1788 binding sites), rat cortex; assay: Ro15-1788 competition binding assay, rat cortex membranes; settings: displacement of 3H Ro15-1788, read-out: Ro15-1788 binding, K1
Experimental: Rat cortex membranes are prepared by homogenizing one or two previously frozen rat cortexes in 30 ml of 25 mM Tris Buffer, pH 7.4. The homogenate is centrifuged for 10 minutes at 500× g. The supernatant is then transferred to a clean centrifuge tube and the pellet discarded. The supernatant is spun for 20 minutes at 48,000× g. The supernatant from this spin is discarded and the pellet is resuspended in 30 ml of 25 mM Tris Buffer, pH 7.4 and centrifuged for an additional 10 minutes at 48,000× g. The supernatant from the final spin is discarded and the membrane pellet is resuspended in 100 mL Tris buffer per gram of cortex used.
The cortex membrane preparation is used to perform either percent inhibition or competition binding assays. In order to determine percent inhibition 300 μl of resuspended membranes are mixed with 200 μl ^3H labeled Ro15-1788 (final concentration 2.5 nM) and incubated for 1 hour on ice in the presence of 2 μl test compound in DMSO (final concentration 4 μM). Membranes are harvested onto untreated filtermats. The filtermats are dried and the ^3H Ro15-1788 signal is counted in a scintillation counter. Nonspecific binding is determined by displacement of ^3H Ro15-1788 with 10 μM Diazepam (RBI) or any other compound known to bind tightly at the benzodiazepine site.
K1 values are calculated according to the Cheng-Prussof equation.

[6] = molecular target: α3β3γ2 GABAA subtype receptor (Homo sapiens, UniProt P18507+P34903); assay: oocyte electrophysiology, two electrode voltage-clamp, potentiation of GABA current; type: cell-based; settings: Xenopus oocytes, human subunits, GABA EC10
Chain of α3β3γ2 GABAA subtype receptor (P34903 29-492): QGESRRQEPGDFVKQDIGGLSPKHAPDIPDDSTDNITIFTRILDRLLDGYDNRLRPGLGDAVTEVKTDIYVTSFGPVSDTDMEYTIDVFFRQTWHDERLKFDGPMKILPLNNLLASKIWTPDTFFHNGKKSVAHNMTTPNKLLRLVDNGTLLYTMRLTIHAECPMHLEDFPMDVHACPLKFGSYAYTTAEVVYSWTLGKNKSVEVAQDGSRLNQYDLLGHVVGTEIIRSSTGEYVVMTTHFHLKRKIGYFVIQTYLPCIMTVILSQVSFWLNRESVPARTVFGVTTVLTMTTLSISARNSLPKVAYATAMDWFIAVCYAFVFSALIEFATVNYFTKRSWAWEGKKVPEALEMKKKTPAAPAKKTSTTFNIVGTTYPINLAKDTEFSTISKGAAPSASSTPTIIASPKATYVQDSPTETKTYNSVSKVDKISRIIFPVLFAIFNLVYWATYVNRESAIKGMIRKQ
Chain of α3β3γ2 GABAA subtype receptor (P28472 26-473 partner): as the sequence (P28472 26-473 partner) above
Chain of α3β3γ2 GABAA subtype receptor (P18507 40-475): as the sequence (P18507 40-475) above
Experimental: as §1, §2, §3, §4

[7] = molecular target: α2β3γ2 GABAA subtype receptor (Homo sapiens, UniProt P18507+P47869); assay: as above; type: cell-based; settings: Xenopus oocytes, human subunits, GABA EC10
Chain of α2β3γ2 GABAA subtype receptor (P47869 29-451): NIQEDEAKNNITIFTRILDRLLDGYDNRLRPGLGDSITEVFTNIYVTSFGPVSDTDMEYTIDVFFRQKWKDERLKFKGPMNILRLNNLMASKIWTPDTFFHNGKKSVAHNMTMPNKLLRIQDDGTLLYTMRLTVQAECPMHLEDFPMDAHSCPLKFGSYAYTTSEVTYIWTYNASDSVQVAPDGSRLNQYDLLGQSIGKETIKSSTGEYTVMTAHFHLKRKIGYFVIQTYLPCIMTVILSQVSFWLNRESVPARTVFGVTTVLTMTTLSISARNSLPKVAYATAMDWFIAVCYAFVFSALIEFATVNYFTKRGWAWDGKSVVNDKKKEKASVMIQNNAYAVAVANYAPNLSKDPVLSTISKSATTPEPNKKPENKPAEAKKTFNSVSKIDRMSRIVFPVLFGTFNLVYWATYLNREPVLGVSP
Chain of α2β3γ2 GABAA subtype receptor (P28472 26-473 partner): as the sequence (P28472 26-473 partner) above
Chain of α2β3γ2 GABAA subtype receptor (P18507 40-475): as the sequence (P18507 40-475) above
Experimental: as §1, §2, §3, §4

[8] = molecular target: α1β2γ2 GABAA subtype receptor (Homo sapiens, UniProt P14867+P18507); assay: as above; type: cell-based; settings: Xenopus oocytes, human subunits, GABA EC10; for Emax: read-out: oocyte electrophysiology maximum potentiation (%) α1β2γ2
Chain of α1β2γ2 GABAA subtype receptor (P14867 28-456): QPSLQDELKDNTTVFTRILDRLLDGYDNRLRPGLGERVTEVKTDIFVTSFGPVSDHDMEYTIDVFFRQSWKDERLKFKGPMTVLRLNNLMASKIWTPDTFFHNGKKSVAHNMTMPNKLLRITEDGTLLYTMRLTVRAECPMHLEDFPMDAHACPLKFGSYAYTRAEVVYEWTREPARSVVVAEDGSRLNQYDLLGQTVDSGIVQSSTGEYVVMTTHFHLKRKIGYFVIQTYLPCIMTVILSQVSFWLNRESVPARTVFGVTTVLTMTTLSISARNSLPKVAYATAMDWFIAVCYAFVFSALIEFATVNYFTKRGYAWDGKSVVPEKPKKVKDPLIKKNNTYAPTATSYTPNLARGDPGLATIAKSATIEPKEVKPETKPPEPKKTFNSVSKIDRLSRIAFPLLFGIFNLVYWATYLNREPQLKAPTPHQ
Chain of α1β2γ2 GABAA subtype receptor (P47870 25-512 partner limits assumed): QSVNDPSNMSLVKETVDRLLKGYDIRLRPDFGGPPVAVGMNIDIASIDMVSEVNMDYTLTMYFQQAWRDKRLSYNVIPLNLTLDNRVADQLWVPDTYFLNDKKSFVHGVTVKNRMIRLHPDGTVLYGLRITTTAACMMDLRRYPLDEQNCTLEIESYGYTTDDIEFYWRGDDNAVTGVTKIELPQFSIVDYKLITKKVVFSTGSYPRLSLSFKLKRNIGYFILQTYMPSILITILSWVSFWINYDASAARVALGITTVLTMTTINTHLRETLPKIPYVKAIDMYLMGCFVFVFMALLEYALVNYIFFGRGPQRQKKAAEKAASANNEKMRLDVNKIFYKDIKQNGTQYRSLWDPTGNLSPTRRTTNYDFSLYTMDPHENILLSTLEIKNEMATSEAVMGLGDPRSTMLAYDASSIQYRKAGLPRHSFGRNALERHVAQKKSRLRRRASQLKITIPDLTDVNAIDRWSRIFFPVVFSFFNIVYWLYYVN
Chain of α1β2γ2 GABAA subtype receptor (P18507 40-475): as the sequence (P18507 40-475) above
Experimental: as §1, §2, §3, §4

[9] = tested on: rats; assay: spatial water maze; type: in vivo; settings: rat
[10] = tested on: rats; assay: step-down passive avoidance; type: in vivo; settings: rat, IV, cognitive enhancement
Source text: In step-down passive avoidance a rat is placed on a platform located in the center of an electrified grid floor that is contained within a large (45 cm×45 cm×50 cm) white translucent Plexiglas® enclosure. The natural inclination of the rat is to step off the platform and investigate its surroundings. […] Each time the animal steps off the platform it receives a mild foot shock of 2 mAmps×6 sec. Following each shock the animal is removed from the box, placed in its cage for a one minute inter-trial interval, and then returned to the platform. The latency to step down on each trial, the number of trials taken to reach criterion during training and the retention latency are collected.
Testing is conducted approximately 24 hrs. after training. Drug-free animals are placed on the platform in the box in which they will have been trained and the latency to step down onto the grid floor is recorded for one trial as a measure of memory retention.

[11] = tested on: bicuculline-induced seizures in rats; assay: bicuculline seizure threshold test; type: in vivo; settings: rat, compound infused 5 minutes before bicuculline
Source text: This test provides a measure of whether the test compound is proconvulsant by measuring whether the test compound produces any change in the dose of the seizure inducing drug, bicuculline, needed to elicit seizures in rats. Test compounds must show <25% decrease in seizure threshold or p>0.05 significance to be considered as drug candidates.
Adult male Sprague-Dawley rats (175-300 g) are weighed and placed in a rat restrainer. A Teflon® indwelling catheter is placed in one of the lateral tail veins and held in place with surgical tape. The catheter and a 3.0 cc syringe are connected by a length of PE-100 tubing fitted with Hamilton male and female adapter. Patency of catheter placement is tested by backflow of venous blood and ready infusion of less than 2 ml of saline solution. Animals are placed in a clear acrylic cage for behavioral observation.
The test compound is prepared in either 25% or 50% polyethylene glycol 400 (PEG) vehicle. A bicuculline (BIC) stock solution of 1.0 mg/ml BIC in 25% PEG/75% 1N HCl is also prepared. […]
Test compound is infused 5 minutes prior to the start of bicuculline infusion. […] The time elapsed from the start of bicuculline infusion to first myoclonic jerk (first head/neck twitch), the initiation of full myoclonus (writhing), and final forelimb extension is all recorded using a digital stopwatch. […]

SMILES	elevated plus maze, minimal efficacious dose [1]	Porsolt swim test, minimal efficacious dose [2]	oocyte electrophysiology maximum potentiation (%) α5β3γ2 [3]	Emax [3]	Ki [5]	oocyte electrophysiology maximum potentiation (%) α3β3γ2 [6]	oocyte electrophysiology maximum potentiation (%) α2β3γ2 [7]	oocyte electrophysiology maximum potentiation (%) α1β2γ2 [8]	other results
CNCc1ccc(NC(=O)c2c[nH]c3c2C(=O)CCCC3)cc1 [compound 4]	0.5 mg/kg	20 mg/kg	38%	0%	–	–	–	–	–
CCOc1ccc(NC(=O)c2c[nH]c3c2C(=O)CCC3)cc1 [compound 3]	0.125 mg/kg	20 mg/kg	38%	-11%	–	–	–	–	spontaneous locomotor activity, minimal efficacious dose ([4]; in vivo, iv, 15 min): 4 mg/kg
COc1ccc(F)c(-c2ncc3[nH]c4c(c3n2)CCCC4)c1 [compound 11]	–	–	–	-22%	33 nM	36%	21%	–	Emax [8]: -11%; cognitive model (spatial water maze), minimal efficacious dose ([9]; PO): PO = 10.0^†† mg/kg
O=C(Nc1ccccc1)c1c[nH]c2c1C(=O)CCCC2 [compound 13]	–	–	–	-20%	6.3 nM	14%	9%	–	Emax [8]: -17%; cognitive model (spatial water maze), minimal efficacious dose ([9]; IV): 0.125^†† mg/kg
CC(C)(C)OC(=O)c1ncn2c1C1CCCN1C(=O)c1c(Br)cccc1-2 (centres unmarked) [Ro16-6028, reference compound]	–	1 mg/kg	64%	–	0.48 nM	76%	37%	40%	EC50 [6]: 5 nM; EC50 [7]: 5 nM; EC50 [3]: 3 nM; EC50 [8]: 3 nM; spontaneous locomotor activity, minimal efficacious dose ([4]; IV, sedation as side effect (Tables V and IX)): 0.06 mg/kg
O=C1C2C=Nc3ccccc3C2=NN1c1ccccc1 (centres unmarked) [CGS 8216, reference compound]	–	–	−39%	–	–	−8%	−10%	−26%	cognitive model (step-down passive avoidance), minimal efficacious dose [10]: 0.06 mg/kg; bicuculline seizure threshold, mean percent decrease in seizure threshold over the dose range studied [11]: 50%
CCOc1ccc(-n2c(=O)c3c[nH]c4ccccc4n-3c2=O)cc1 [compound 1]	0.03 mg/kg	20 mg/kg	15%	-11%	–	–	–	12%	EC50 [3]: 88 nM

— patent publication US7060451B2, “Methods for screening GABA-modulatory compounds for specified pharmacological activities” (Neurogen Corporation, priority 1999, dated 2006)
